# Experimental data: patent publication US20160355530A1, “HEPATITIS C INHIBITORS AND USES THEREOF” (AbbVie Inc., priority 2010, published 2016)
# Like-named read-outs stand apart in the source and are kept apart here.
# Key:
# [1] = molecular target: T1, HCV NS5B polymerase 1a-H77 (Hepatitis C virus genotype 1a, UniProt P27958); assay: biochemical; design: species or system HCV genotype 1a
# T1 construct: six-histidine tag; made in house; host or cells: E. coli
# Procedure, shortened: (§1)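 Recombinant NS5B (residues 1–570, His-tagged, E. coli-expressed) copied 5 nM of a 2.1 kb HCV 1b negative-strand 3′-end RNA template with 20 μM CTP, 20 μM ATP and 0.284 μM [3H]UTP for 3 h at 30 °C. Spermine-precipitated RNA was filter-captured and counted, and IC50 was fitted by nonlinear regression.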
# [2] = molecular target: T2, HCV NS5B polymerase 1a-H77-C316Y (Hepatitis C virus genotype 1a, UniProt P27958, C2736Y); assay: biochemical; design: species or system HCV genotype 1a
# T2 construct: six-histidine tag; made in house; host or cells: E. coli
# Procedure, shortened: as §1
# [3] = system: HCV NS5B polymerase 1a-H77-C316Y; assay: biochemical; design: species or system HCV genotype 1a; details: ratio of enzyme IC50s, 1a H77-C316Y / 1a H77
# Procedure, shortened: as §1
# [4] = molecular target: T3, HCV NS5B polymerase 1b BK strain (Hepatitis C virus genotype 1b, UniProt P26663); assay: HCV NS5B polymerase enzymatic inhibition assay, strain 1b BK; type: biochemical
# T3 construct: six-histidine tag; made in house; host or cells: E. coli
# Procedure, shortened: as §1
# [5] = system: HCV 1a-H77 subgenomic replicon; assay: microbe, parasite or virus in culture; type: cell-based, HCV genotype 1a; details: Hepatitis C virus, stable replicon
# [6] = system: HCV 1b-BB7 subgenomic replicon; assay: microbe, parasite or virus in culture; type: cell-based, HCV genotype 1b; details: Hepatitis C virus, stable replicon
# [7] = system: chimeric replicon with 2a-J6CF-derived NS5B; assay: microbe, parasite or virus in culture; type: cell-based, HCV genotype 2a; details: Hepatitis C virus, read-out: 2a chimera 5% FBS EC50
# [8] = system: chimeric replicon with genotype 2b NS5B; assay: microbe, parasite or virus in culture; type: cell-based, HCV genotype 2b; details: Hepatitis C virus, read-out: 2b chimera 5% FBS EC50
# [9] = system: chimeric replicon with genotype 3a NS5B; assay: microbe, parasite or virus in culture; type: cell-based, HCV genotype 3a; details: Hepatitis C virus, read-out: 3a chimera 5% FBS EC50
# [10] = system: chimeric replicon with genotype 4a NS5B; assay: microbe, parasite or virus in culture; type: cell-based, HCV genotype 4a; details: Hepatitis C virus, read-out: 4a chimera 5% FBS EC50
# [11] = enzyme, strain 1a H77, read-out: HCV Polymerase Strain 1a H77 IC50
# [12] = enzyme, strain 1b BK, read-out: HCV Polymerase Strain 1b BK IC50
# [13] = 5% FBS, absence of human plasma, read-out: Stable Replicon 1a H77 5% FBS EC50
# [14] = strain 1a H77, 5% FBS + 40% human plasma, read-out: 1a H77 5% FBS + 40% Human Plasma EC50
# [15] = strain 1a H77, 5% FBS, no human plasma, read-out: 1a H77 5% FBS EC50
# [16] = strain 1a H77, 5% FBS, read-out: 1a H77 5% FBS EC50
# [17] = strain 1b BB7, 5% FBS + 40% human plasma, read-out: 1b BB7 5% FBS + 40% Human Plasma EC50
# [18] = strain 1b BB7, 5% FBS, no human plasma, read-out: 1b BB7 5% FBS EC50
# [19] = strain 1b BB7, 5% FBS, read-out: 1b BB7 5% FBS EC50
# T3 sequence (P26663 2420-2989): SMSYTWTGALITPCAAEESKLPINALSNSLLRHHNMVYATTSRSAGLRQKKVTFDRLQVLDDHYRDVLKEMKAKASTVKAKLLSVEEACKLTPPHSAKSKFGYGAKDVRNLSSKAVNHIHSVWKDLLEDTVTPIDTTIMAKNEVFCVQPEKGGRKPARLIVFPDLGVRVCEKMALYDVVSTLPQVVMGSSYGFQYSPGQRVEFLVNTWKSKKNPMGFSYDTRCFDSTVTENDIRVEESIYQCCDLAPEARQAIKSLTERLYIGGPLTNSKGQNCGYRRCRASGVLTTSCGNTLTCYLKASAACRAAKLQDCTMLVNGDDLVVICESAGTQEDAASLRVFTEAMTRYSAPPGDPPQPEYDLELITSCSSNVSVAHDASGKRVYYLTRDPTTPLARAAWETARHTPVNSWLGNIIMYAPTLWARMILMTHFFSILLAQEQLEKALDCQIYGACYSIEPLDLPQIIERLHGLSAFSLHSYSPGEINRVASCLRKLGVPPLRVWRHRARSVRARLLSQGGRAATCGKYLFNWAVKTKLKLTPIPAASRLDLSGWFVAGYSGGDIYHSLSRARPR
# T2 sequence (P27958 2421-2990 C2736Y): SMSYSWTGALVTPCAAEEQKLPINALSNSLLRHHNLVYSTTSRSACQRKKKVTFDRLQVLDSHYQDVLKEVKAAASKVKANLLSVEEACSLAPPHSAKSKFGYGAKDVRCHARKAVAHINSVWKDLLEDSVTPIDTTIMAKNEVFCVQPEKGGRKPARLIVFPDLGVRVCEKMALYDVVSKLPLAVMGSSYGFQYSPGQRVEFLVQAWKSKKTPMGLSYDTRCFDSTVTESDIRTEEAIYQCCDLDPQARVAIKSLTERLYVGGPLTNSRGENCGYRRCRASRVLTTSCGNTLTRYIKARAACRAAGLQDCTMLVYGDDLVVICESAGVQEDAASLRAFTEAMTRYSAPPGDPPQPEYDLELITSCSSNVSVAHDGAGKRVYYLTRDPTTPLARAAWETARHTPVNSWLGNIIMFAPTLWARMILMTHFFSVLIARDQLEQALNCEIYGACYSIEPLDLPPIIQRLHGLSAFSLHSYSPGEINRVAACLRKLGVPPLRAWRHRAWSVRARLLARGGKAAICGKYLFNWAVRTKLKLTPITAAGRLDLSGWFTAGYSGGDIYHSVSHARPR
# T1 sequence (P27958 2421-2990): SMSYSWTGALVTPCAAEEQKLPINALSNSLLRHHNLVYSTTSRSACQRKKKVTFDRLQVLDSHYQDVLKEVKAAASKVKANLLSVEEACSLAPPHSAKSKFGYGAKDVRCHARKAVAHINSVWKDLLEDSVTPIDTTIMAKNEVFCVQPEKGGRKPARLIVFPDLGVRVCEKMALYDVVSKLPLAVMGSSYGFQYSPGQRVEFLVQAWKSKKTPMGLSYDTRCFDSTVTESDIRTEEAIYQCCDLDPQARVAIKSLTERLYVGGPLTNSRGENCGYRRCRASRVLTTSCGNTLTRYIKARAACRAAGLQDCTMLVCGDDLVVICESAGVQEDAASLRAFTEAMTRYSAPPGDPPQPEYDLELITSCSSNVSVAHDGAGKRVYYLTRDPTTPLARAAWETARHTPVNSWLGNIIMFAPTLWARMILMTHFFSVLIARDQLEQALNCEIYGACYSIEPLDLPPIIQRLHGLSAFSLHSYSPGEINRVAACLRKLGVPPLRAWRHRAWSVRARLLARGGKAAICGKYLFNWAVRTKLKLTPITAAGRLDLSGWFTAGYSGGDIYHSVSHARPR
Structure (SMILES),"IC50 [1, 11] [nM]",IC50 [2] [nM],C316Y/1a Fold Resistance [3] [fold],"IC50 [4, 12] [nM]","EC50 [5, 13] [nM]","EC50 [5, 14] [nM]","EC50 [5, 15] [nM]","EC50 [5, 16] [nM]","EC50 [6, 17] [nM]","EC50 [6, 18] [nM]","EC50 [6, 19] [nM]",EC50 [7] [nM],EC50 [8] [nM],EC50 [9] [nM],EC50 [10] [nM],IC50 [1] [nM],IC50 [4] [nM]
"CS(=O)(=O)N(Cc1cnc(-c2ccc3[nH]ccc3c2)s1)c1ccc2c(-c3ncc[nH]3)c(-c3ccccc3)oc2c1 [Example 23, N-[3-(1H-imidazol-2-yl)-2-phenyl-1-benzofuran-6-yl]-N-{[2-(1H-indol-5-yl)-1,3-thiazol-5-yl]methyl}methanesulfonamide]",3.9,27,7,10,230,10000,230,230,9240,26.4,26.4,41.6,281,17.3,313,,
"C[S+]([O-])c1ccc(-c2ncc(CN(c3ccc4c(-c5ncc[nH]5)c(-c5ccccc5)oc4c3)S(C)(=O)=O)s2)cc1 (stereo not drawn) [Example 24, N-[3-(1H-imidazol-2-yl)-2-phenyl-1-benzofuran-6-yl]-N-({2-[4-(methylsulfinyl)phenyl]-1,3-thiazol-5-yl}methyl)methanesulfonamide]",6.9,36,5,18,157,10000,157,157,3850,12.4,12.4,206,193,5.4,362,,
"Cn1ccc2cc(-c3ncc(CN(c4ccc5c(-c6ncc[nH]6)c(-c6ccccc6)oc5c4)S(C)(=O)=O)s3)ccc21 [Example 25, N-[3-(1H-imidazol-2-yl)-2-phenyl-1-benzofuran-6-yl]-N-{[2-(1-methyl-1H-indol-5-yl)-1,3-thiazol-5-yl]methyl}methanesulfonamide]",6.3,43,7,15,266,10000,266,266,10000,8.2,8.2,108,382,10.7,452,,
"Cn1cc(-c2ncc(CN(c3ccc4c(-c5ncc[nH]5)c(-c5ccccc5)oc4c3)S(C)(=O)=O)s2)cn1 [Example 26, N-[3-(1H-imidazol-2-yl)-2-phenyl-1-benzofuran-6-yl]-N-{[2-(1-methyl-1H-pyrazol-4-yl)-1,3-thiazol-5-yl]methyl}methanesulfonamide]",12,30,3,10,343,10000,343,343,5450,15,15,277,497,5.2,377,,
"CS(=O)(=O)N(Cc1cnc(-c2cccc(CO)c2)s1)c1ccc2c(-c3ncc[nH]3)c(-c3ccccc3)oc2c1 [Example 28, N-({2-[3-(hydroxymethyl)phenyl]-1,3-thiazol-5-yl}methyl)-N-[3-(1H-imidazol-2-yl)-2-phenyl-1-benzofuran-6-yl]methanesulfonamide]",5.9,28,5,12,405,10000,405,405,10000,24.1,24.1,234,561,14.3,378,,
"Cn1cnc2ccc(-c3ncc(CN(c4ccc5c(-c6ncc[nH]6)c(-c6ccccc6)oc5c4)S(C)(=O)=O)s3)cc21 [Example 30, N-[3-(1H-imidazol-2-yl)-2-phenyl-1-benzofuran-6-yl]-N-{[2-(1-methyl-1H-benzimidazol-6-yl)-1,3-thiazol-5-yl]methyl}methanesulfonamide]",5,19,4,12,108,10000,108,108,1320,4,4,40.7,109,2.8,150,,
"CS(=O)(=O)N(CCCOc1ccccc1)c1cc2oc(-c3ccc(F)cc3)c(-c3ncc[nH]3)c2cc1C1CC1 [Example 37, N-[5-cyclopropyl-2-(4-fluorophenyl)-3-(1H-imidazol-2-yl)-1-benzofuran-6-yl]-N-(3-phenoxypropyl)methanesulfonamide]",5.5,144,26,24,348,1390,348,348,529,145,145,522,751,166,598,,
"CS(=O)(=O)N(CCCN1CCCCC1)c1cc2oc(-c3ccc(F)cc3)c(C3=NOCCN3)c2cc1C1CC1 [Example 130, N-[5-cyclopropyl-3-(5,6-dihydro-4H-1,2,4-oxadiazin-3-yl)-2-(4-fluorophenyl)-1-benzofuran-6-yl]-N-[3-(piperidin-1-yl)propyl]methanesulfonamide]",20.5,412,20,229,44.2,296,44.2,44.2,110,26,26,74,,42.6,416,,
"CC(C)CCN(c1cc2oc(-c3ccc(F)cc3)c(-c3nccc(=O)[nH]3)c2cc1C1CC1)S(C)(=O)=O [Example 161, N-[5-cyclopropyl-2-(4-fluorophenyl)-3-(6-oxo-1,6-dihydropyrimidin-2-yl)-1-benzofuran-6-yl]-N-(3-methylbutyl)methanesulfonamide]",47.5,219,5,791,124,7910,124,124,10000,188,188,,,,,,
"COc1ccc(CN(c2cc3oc(-c4ccc(F)cc4)c(-c4ncc[nH]4)c3cc2OC(C)C)S(C)(=O)=O)cc1 [Example 170, N-[2-(4-fluorophenyl)-3-(1H-imidazol-2-yl)-5-isopropoxy-1-benzofuran-6-yl]-N-(4-methoxybenzyl)methanesulfonamide]",36,20000,556,338,540,,540,540,,121,121,,,,,,
"COc1ccc(CN(c2cc3oc(-c4ccc(F)cc4)c(-c4ncc(C)[nH]4)c3cc2C2CC2)S(C)(=O)=O)cc1 [Example 188, N-[5-cyclopropyl-2-(4-fluorophenyl)-3-(5-methyl-1H-imidazol-2-yl)-1-benzofuran-6-yl]-N-(4-methoxybenzyl)methanesulfonamide]",15.4,224,15,55,399,8460,399,399,2030,208,208,,,,,,
"CS(=O)(=O)N(Cc1cc(O)no1)c1cc2oc(-c3ccc(F)cc3)c(-c3ncc[nH]3)c2cc1C1CC1 [Example 190, N-[5-cyclopropyl-2-(4-fluorophenyl)-3-(1H-imidazol-2-yl)-1-benzofuran-6-yl]-N-[(3-hydroxy-1,2-oxazol-5-yl)methyl]methanesulfonamide]",,500,112,,263,3460,,263,1370,,116,,,,,4.5,26
